Source: ChEMBL document CHEMBL1201862, “PubChem BioAssay data set” (2004)
Active and inactive are the calls of the source.

What was measured:
Type in all cases: functional
[1] = molecular target: T1, Sentrin-specific protease 7 (Homo sapiens, UniProt Q9BQF6);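 further: Luminescence-based dose-response confirmation of ultra-high-throughput screening hits, measuring inhibition of SENP7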
T1 sequence (Q9BQF6 whole entry): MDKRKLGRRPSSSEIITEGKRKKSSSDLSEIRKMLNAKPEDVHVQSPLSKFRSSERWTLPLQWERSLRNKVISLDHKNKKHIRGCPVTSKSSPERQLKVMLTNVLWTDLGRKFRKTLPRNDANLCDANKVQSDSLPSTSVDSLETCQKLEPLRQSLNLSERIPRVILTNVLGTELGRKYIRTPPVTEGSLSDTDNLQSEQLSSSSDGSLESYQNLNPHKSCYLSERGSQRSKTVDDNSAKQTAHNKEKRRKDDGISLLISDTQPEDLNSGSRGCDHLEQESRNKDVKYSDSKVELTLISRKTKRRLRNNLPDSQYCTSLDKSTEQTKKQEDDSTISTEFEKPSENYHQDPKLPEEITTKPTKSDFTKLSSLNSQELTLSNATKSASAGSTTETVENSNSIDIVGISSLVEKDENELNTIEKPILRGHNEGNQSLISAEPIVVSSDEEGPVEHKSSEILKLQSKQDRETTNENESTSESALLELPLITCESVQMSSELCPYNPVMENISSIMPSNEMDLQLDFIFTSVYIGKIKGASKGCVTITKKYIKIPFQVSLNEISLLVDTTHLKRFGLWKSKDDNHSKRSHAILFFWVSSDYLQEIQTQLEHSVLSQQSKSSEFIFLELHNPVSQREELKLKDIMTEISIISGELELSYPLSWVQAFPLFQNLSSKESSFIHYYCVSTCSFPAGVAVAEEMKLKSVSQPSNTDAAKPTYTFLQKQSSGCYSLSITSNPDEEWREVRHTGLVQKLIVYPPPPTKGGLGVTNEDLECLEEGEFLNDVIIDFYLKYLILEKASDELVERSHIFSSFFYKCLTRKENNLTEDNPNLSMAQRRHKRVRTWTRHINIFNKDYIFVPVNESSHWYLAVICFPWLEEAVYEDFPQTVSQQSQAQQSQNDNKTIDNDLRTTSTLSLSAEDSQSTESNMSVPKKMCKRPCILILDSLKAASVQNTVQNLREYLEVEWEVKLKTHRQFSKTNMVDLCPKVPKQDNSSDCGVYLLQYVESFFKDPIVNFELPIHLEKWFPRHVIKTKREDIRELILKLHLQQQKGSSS

[2] = molecular target: T2, Sentrin-specific protease 8 (Homo sapiens, UniProt Q96LD8); test: SENP8 protease inhibitors, SAR follow-up, biochemical, luminescence (AID 504501)
T2 sequence (Q96LD8 whole entry): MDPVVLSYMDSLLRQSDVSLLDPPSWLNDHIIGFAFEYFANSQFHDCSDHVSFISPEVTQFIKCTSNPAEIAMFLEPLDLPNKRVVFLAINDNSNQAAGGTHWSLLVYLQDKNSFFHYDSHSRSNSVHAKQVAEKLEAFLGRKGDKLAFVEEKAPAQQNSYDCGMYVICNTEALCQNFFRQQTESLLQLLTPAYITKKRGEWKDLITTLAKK

[3] = molecular target: Platelet-derived growth factor receptor alpha (Homo sapiens, UniProt P16234); test: Navigating the Kinome. Panel member name: PDGFRA
Sequence of Platelet-derived growth factor receptor alpha (P16234 whole entry): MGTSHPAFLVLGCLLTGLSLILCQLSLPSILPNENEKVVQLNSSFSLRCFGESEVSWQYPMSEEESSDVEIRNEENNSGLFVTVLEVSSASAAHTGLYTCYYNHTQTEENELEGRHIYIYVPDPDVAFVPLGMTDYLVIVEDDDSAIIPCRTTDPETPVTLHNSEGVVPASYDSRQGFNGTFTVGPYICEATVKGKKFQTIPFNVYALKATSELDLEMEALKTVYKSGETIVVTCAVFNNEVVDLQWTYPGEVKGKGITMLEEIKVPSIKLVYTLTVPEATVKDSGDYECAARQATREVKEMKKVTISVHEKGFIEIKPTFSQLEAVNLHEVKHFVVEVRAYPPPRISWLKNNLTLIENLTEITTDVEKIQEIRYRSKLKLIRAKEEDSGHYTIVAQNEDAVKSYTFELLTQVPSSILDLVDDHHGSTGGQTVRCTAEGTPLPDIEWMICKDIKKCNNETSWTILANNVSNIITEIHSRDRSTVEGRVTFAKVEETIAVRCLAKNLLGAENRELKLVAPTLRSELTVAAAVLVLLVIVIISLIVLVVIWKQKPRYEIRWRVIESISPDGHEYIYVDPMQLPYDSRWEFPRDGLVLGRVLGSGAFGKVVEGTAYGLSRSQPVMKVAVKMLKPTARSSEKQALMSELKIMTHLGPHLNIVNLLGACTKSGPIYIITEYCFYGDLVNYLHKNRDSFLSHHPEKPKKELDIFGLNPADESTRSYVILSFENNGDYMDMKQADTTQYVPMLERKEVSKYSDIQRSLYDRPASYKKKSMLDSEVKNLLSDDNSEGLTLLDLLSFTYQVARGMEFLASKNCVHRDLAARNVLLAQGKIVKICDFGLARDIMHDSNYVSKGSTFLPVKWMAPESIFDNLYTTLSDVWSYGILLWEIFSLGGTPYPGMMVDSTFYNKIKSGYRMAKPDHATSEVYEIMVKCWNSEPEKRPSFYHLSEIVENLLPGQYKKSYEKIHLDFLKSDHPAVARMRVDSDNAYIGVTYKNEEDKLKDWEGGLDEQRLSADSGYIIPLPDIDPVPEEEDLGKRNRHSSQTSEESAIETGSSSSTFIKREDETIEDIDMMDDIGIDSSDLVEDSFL

[4] = molecular target: Mitogen-activated protein kinase kinase kinase kinase 4 (Homo sapiens, UniProt O95819)
[5] = molecular target: Macrophage-stimulating protein receptor (Homo sapiens, UniProt Q04912); test: Navigating the Kinome. Panel member name: MST1R
Sequence of Macrophage-stimulating protein receptor (Q04912 25-304 limits assumed): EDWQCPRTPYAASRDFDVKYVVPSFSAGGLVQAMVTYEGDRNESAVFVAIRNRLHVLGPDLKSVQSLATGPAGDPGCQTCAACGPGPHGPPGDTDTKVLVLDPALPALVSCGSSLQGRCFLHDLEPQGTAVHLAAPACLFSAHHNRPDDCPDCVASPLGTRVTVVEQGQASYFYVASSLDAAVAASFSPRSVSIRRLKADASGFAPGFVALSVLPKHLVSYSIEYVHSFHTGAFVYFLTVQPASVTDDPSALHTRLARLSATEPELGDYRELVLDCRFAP
Sequence of Macrophage-stimulating protein receptor (Q04912 310-1400 limits assumed): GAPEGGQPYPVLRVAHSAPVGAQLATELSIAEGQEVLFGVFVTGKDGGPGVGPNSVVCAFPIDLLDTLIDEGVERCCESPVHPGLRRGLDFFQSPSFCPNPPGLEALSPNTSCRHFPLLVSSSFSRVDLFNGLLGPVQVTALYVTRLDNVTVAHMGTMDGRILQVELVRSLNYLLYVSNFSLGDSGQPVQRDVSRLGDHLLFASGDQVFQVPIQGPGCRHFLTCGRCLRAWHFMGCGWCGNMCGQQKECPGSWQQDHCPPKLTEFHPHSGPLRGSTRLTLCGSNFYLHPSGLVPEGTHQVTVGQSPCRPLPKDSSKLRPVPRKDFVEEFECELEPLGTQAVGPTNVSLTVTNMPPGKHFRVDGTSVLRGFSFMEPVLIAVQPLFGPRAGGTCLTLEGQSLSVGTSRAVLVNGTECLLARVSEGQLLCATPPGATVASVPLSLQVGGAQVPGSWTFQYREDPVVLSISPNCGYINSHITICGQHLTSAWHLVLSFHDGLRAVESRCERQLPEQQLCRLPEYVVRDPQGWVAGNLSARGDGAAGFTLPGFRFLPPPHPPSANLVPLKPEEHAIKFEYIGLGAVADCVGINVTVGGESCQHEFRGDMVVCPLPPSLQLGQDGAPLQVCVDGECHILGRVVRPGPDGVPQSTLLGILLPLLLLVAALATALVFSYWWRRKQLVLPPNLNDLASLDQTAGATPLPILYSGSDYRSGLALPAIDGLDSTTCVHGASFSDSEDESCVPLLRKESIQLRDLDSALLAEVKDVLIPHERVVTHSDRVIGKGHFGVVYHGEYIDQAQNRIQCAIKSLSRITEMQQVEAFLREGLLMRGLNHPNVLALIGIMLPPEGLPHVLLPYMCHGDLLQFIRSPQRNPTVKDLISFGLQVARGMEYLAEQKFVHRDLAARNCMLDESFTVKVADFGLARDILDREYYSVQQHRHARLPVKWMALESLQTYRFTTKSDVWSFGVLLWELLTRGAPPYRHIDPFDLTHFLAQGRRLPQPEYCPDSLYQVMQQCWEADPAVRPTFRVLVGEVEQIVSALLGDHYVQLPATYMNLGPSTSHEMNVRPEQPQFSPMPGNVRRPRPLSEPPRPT

[6] = molecular target: Vascular endothelial growth factor receptor 1 (Homo sapiens, UniProt P17948);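 further: measured within a kinome-wide profiling panel, FLT1 as the panel member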
Sequence of Vascular endothelial growth factor receptor 1 (P17948 whole entry): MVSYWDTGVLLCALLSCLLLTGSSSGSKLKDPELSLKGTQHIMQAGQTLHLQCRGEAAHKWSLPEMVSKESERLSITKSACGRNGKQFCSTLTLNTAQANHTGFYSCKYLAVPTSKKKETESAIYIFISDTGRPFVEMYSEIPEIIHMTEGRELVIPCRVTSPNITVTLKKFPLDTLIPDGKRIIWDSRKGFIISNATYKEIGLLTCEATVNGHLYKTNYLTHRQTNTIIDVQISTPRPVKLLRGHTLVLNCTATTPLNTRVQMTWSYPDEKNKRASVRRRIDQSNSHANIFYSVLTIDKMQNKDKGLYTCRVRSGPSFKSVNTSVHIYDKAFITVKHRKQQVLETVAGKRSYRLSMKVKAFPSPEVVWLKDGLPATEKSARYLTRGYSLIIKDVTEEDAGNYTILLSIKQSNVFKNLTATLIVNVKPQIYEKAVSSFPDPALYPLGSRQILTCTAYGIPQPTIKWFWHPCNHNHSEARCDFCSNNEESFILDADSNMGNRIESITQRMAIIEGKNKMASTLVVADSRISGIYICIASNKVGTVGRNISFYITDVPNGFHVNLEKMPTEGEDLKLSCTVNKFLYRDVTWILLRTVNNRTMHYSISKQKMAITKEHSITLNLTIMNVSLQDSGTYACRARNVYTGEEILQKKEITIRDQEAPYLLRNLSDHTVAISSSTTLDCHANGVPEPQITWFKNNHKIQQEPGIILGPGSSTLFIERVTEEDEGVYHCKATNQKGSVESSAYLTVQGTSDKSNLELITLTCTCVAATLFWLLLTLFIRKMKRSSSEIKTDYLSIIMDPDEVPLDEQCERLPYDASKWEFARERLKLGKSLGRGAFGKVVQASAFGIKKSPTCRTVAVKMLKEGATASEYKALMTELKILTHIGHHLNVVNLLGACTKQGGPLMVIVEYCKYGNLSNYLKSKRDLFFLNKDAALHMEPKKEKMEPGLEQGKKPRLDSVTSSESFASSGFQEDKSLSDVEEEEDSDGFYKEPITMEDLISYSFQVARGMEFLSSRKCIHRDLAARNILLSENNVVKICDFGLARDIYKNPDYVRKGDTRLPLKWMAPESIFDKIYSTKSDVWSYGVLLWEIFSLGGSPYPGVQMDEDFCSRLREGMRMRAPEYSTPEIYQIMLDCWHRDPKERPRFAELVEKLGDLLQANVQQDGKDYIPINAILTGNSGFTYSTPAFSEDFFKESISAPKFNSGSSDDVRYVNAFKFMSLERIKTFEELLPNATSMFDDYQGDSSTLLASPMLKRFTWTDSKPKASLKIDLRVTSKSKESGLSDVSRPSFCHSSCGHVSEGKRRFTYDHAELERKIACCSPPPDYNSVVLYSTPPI

[7] = molecular target: T3, Serine/threonine-protein kinase Chk1 (Homo sapiens, UniProt O14757);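 further: measured as one member of a kinome-wide kinase profiling panel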
T3 sequence (O14757 whole entry): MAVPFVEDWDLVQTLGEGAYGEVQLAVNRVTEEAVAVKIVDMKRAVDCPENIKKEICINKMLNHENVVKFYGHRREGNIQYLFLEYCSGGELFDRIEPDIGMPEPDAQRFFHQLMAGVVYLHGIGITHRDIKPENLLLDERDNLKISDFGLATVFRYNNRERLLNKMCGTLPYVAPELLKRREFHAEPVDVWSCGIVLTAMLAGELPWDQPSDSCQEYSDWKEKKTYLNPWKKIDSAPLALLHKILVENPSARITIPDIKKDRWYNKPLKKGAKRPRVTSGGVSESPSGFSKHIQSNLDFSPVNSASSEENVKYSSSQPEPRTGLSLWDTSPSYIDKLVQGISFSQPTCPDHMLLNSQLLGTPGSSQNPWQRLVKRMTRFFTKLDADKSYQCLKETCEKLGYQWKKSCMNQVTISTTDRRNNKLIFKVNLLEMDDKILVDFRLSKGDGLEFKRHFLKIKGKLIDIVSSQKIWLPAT

[8] = molecular target: Cyclin-dependent kinase 8 (Homo sapiens, UniProt P49336); test: Navigating the Kinome. Panel member name: CDK8
Sequence of Cyclin-dependent kinase 8 (P49336 whole entry, the tested form may be a part): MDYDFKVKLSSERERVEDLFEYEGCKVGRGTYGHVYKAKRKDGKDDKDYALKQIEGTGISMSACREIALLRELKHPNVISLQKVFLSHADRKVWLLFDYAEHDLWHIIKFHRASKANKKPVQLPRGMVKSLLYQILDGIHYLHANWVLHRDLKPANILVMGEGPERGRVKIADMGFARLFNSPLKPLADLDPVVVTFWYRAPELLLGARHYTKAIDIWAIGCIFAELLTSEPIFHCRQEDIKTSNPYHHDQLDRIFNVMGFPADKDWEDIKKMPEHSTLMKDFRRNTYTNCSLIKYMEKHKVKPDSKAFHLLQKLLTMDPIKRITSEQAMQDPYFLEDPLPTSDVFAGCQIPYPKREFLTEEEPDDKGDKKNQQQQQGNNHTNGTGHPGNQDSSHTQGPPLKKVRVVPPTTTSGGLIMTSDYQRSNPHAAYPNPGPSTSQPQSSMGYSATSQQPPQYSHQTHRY

LIM domain kinase 1 = LIM domain kinase 1 (Homo sapiens, UniProt P53667); test: Navigating the Kinome. Panel member name: LIMK1
[9] = molecular target: T4, Inhibitor of nuclear factor kappa-B kinase subunit epsilon (Homo sapiens, UniProt Q14164); test: Navigating the Kinome. Panel member name: IKBKE
T4 sequence (Q14164 whole entry): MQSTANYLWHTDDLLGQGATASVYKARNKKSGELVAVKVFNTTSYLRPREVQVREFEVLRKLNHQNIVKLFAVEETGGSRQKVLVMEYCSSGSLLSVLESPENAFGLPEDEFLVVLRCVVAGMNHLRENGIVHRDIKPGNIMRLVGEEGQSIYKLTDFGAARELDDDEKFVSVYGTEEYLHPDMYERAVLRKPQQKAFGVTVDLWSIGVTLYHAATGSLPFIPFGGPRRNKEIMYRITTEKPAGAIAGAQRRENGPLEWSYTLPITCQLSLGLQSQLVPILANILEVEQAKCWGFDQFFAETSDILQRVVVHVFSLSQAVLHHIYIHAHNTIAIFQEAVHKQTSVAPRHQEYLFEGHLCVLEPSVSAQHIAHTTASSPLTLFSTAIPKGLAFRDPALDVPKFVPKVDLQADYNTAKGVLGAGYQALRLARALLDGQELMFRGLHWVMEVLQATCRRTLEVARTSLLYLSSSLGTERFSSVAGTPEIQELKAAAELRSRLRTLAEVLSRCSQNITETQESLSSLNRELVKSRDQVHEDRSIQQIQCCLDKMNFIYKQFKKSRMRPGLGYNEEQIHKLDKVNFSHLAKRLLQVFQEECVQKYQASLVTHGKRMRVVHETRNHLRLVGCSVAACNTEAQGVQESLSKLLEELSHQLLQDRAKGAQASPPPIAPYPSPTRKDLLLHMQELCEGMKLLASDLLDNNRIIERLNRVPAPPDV

[10] = molecular target: Cyclin-dependent kinase 19 (Homo sapiens, UniProt Q9BWU1); test: Navigating the Kinome. Panel member name: CDC2L6
[11] = molecular target: Rho-associated protein kinase 1 (Homo sapiens, UniProt Q13464);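 further: measured within a broad kinome-wide panel profiling many kinases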
[12] = molecular target: Cyclin-dependent kinase 9 (Homo sapiens, UniProt P50750);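 further: value from the CDK9 entry of a kinome-spanning kinase panel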
Sequence of Cyclin-dependent kinase 9 (P50750 whole entry): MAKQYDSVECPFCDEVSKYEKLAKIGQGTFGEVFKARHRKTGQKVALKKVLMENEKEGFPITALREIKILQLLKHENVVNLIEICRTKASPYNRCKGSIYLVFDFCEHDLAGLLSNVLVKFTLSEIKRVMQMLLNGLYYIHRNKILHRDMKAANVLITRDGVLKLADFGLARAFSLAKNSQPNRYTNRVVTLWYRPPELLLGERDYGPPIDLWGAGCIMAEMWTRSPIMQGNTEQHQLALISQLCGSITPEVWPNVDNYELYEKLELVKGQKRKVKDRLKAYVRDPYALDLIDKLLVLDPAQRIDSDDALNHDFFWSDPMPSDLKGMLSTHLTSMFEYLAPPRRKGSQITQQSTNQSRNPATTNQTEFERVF

Compound | IC50 [1] | IC50 [2] | Ki [3] | Ki [4] | Ki [5] | Ki [6] | Ki [7] | Ki [8] | Ki (LIM domain kinase 1) | Ki [9] | Ki [10] | Ki [11] | Ki [12]
O=C(NC1=C(Nc2ccc(F)cc2)C(=O)c2ccccc2C1=O)c1ccc(Cl)cc1 | 24.3 µM (active) |  |  |  |  |  |  |  |  |  |  |  | 
COc1cc2cc(NC(C)=O)cc(NCc3ccccc3)c2cc1OC |  | > 99 µM (inactive) |  |  |  |  |  |  |  |  |  |  | 
Oc1nc(Nc2ccc(F)cc2)cc2ccccc12 | 7.05 µM (active) |  |  |  |  |  |  |  |  |  |  |  | 
CN(C)c1cc(N/N=C\c2ccccc2)nc(N(C)C)n1 | 77.6 µM (active) | 31.7 µM (active) |  |  |  |  |  |  |  |  |  |  | 
O=C1Nc2cc(-c3ccc(O)cc3)ccc2C1=Cc1ccc[nH]1 |  |  | 0.501 µM (active) | 0.02 µM (active) | 0.0631 µM (active) | 0.02 µM (active) | 0.02 µM (active) | > 3.98 µM (inactive) | 2.51 µM (active) | > 3.16 µM (inactive) | > 100 µM (inactive) | > 3.98 µM (inactive) | 0.0794 µM (active)
NC(COc1cncc(-c2ccc3c(c2)C(=Cc2ccc[nH]2)C(=O)N3)c1)Cc1ccccc1 (stereo unspecified) |  |  | 0.126 µM (active) | 0.00501 µM (active) | 0.00158 µM (active) | 0.000631 µM (active) | 0.251 µM (active) | 1.58 µM (active) | 0.501 µM (active) | 0.02 µM (active) |  | 0.00398 µM (active) | 0.158 µM (active)
O=C1Cc2cc(-c3ccccc3)cnc2N1 |  |  | 39.8 µM (active) | 79.4 µM (active) | 79.4 µM (active) | 79.4 µM (active) | 3.98 µM (active) | 25.1 µM (active) | 63.1 µM (active) | 100 µM (active) | > 100 µM (inactive) |  | 15.8 µM (active)
